Measured values: PubChem BioAssay AID248 (DTP/NCI, 2004)
Values joined by “and” are separate entries in the source; they are usually repeats but may differ in a detail not shown here. Identical values can stand only once. Inconclusive results and toxic doses are left out. No stated cut-off is given here; in the data, active means T/C of 150% or more; inactive means T/C below 125%.

System: L1210 leukemia ip in BDF1 mice, survival T/C
Assay: NCI In Vivo Anticancer Drug Screen. Data for tumor model L1210 Leukemia (intraperitoneal) in B6D2F1 (BDF1) mice
Details: endpoint: mean survival time, higher = longer survival
How it was run: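 Mice bearing the transplanted tumor received compound or vehicle. Survival of the treated group was divided by that of the vehicle-treated control group to give the ratio.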

[1] = dose: 100.0 mg/kg/injection, schedule: Q01DX009 (ip), vehicle: saline with Tween-80
[2] = dose: 100.0 mg/kg/injection, schedule: Q04DX002 (ip), vehicle: saline with Tween-80
[3] = dose: 100.0 mg/kg/injection, schedule: Q04DX003 (ip), vehicle: saline with Tween-80
[4] = dose: 200.0 mg/kg/injection, schedule: Q01DX009 (ip), vehicle: saline with Tween-80
[5] = dose: 200.0 mg/kg/injection, schedule: Q04DX002 (ip), vehicle: saline with Tween-80
[6] = dose: 200.0 mg/kg/injection, schedule: Q04DX003 (ip), vehicle: saline with Tween-80
[7] = dose: 400.0 mg/kg/injection, schedule: Q01DX009 (ip), vehicle: saline with Tween-80
[8] = dose: 400.0 mg/kg/injection, schedule: Q04DX002 (ip), vehicle: saline with Tween-80
[9] = dose: 400.0 mg/kg/injection, schedule: Q04DX003 (ip), vehicle: saline with Tween-80
[10] = dose: 100.0 mg/kg/injection, schedule: Q01DX009 (ip), vehicle: Klucel (hydroxypropylcellulose) (HPC)
[11] = dose: 100.0 mg/kg/injection, schedule: Q04DX003 (ip), vehicle: Klucel (hydroxypropylcellulose) (HPC)
[12] = dose: 200.0 mg/kg/injection, schedule: Q01DX009 (ip), vehicle: Klucel (hydroxypropylcellulose) (HPC)
[13] = dose: 200.0 mg/kg/injection, schedule: Q04DX003 (ip), vehicle: Klucel (hydroxypropylcellulose) (HPC)
[14] = dose: 400.0 mg/kg/injection, schedule: Q01DX009 (ip), vehicle: Klucel (hydroxypropylcellulose) (HPC)
[15] = dose: 400.0 mg/kg/injection, schedule: Q04DX003 (ip), vehicle: Klucel (hydroxypropylcellulose) (HPC)

Measured: T/C

O=C(CCCN1CCC(O)(c2ccc(Cl)cc2)CC1)c1ccc(F)cc1
inactive: dose: 1.25 mg/kg/injection, schedule: Q01DX009 (ip), vehicle: saline 90 % of control | dose: 2.5 mg/kg/injection, schedule: Q01DX009 (ip), vehicle: Klucel (hydroxypropylcellulose) (HPC) 92 % of control | dose: 2.5 mg/kg/injection, schedule: Q01DX009 (ip), vehicle: saline 100 % of control | dose: 2.5 mg/kg/injection, schedule: Q04DX003 (ip), vehicle: saline 114 % of control | dose: 5.0 mg/kg/injection, schedule: Q01DX009 (ip), vehicle: Klucel (hydroxypropylcellulose) (HPC) 95 % of control | dose: 5.0 mg/kg/injection, schedule: Q01DX009 (ip), vehicle: saline 113 % of control | dose: 5.0 mg/kg/injection, schedule: Q04DX003 (ip), vehicle: saline 101 % of control | dose: 10.0 mg/kg/injection, schedule: Q01DX009 (ip), vehicle: Klucel (hydroxypropylcellulose) (HPC) 100 % of control | dose: 10.0 mg/kg/injection, schedule: Q01DX009 (ip), vehicle: saline 121 % of control | dose: 10.0 mg/kg/injection, schedule: Q04DX003 (ip), vehicle: saline 124 % of control | dose: 20.0 mg/kg/injection, schedule: Q01DX009 (ip), vehicle: Klucel (hydroxypropylcellulose) (HPC) 111 % of control | dose: 20.0 mg/kg/injection, schedule: Q01DX009 (ip), vehicle: saline 90 % of control | dose: 20.0 mg/kg/injection, schedule: Q04DX003 (ip), vehicle: saline 101 % of control | dose: 40.0 mg/kg/injection, schedule: Q01DX009 (ip), vehicle: saline 90 % of control | dose: 40.0 mg/kg/injection, schedule: Q04DX003 (ip), vehicle: saline 101 % of control | dose: 80.0 mg/kg/injection, schedule: Q04DX003 (ip), vehicle: Klucel (hydroxypropylcellulose) (HPC) 110 % of control | dose: 160.0 mg/kg/injection, schedule: Q04DX003 (ip), vehicle: Klucel (hydroxypropylcellulose) (HPC) 106 % of control

O=C(O)c1cc(C(=O)Nc2cccc3ccccc23)c(C(=O)O)cc1C(=O)Nc1cccc2ccccc12
inactive: [1] 96 % of control and 87 % of control | [2] 104 % of control and 116 % of control | [3] 100 % of control | [4] 97 % of control and 91 % of control | [5] 94 % of control and 103 % of control | [6] 105 % of control | [7] 100 % of control and 92 % of control | [8] 93 % of control and 89 % of control | [9] 98 % of control

CC(C)(C)c1cc(/C=N/NC(=O)CC2CCCCC2)cc(C(C)(C)C)c1O
inactive: [1] 92 % of control | [4] 92 % of control | [7] 97 % of control

CC(=O)C1=C(c2ccc([N+](=O)[O-])cc2)NC(=O)NC1c1ccco1 (centres undefined)
inactive: [3] 98 % of control | [6] 93 % of control | [9] 100 % of control

CCC(C#N)c1ccccc1 (centres undefined)
inactive: [10] 103 % of control | [11] 110 % of control | [12] 92 % of control | [13] 119 % of control | [14] 103 % of control | [15] 96 % of control

O=C/C=C/C=C/C=C/C=C/C=C\c1ccccc1
inactive: dose: 75.0 mg/kg/injection, schedule: Q01DX001 (ip), vehicle: other 92 % of control | dose: 150.0 mg/kg/injection, schedule: Q01DX001 (ip), vehicle: other 96 % of control | dose: 300.0 mg/kg/injection, schedule: Q01DX001 (ip), vehicle: other 100 % of control

COc1ccc([N+](=O)[O-])cc1NC(=O)Nc1cc(C)on1
inactive: dose: 100.0 mg/kg/injection, schedule: Q01DX001 (ip), vehicle: Klucel (hydroxypropylcellulose) (HPC) 91 % of control | [10] 96 % of control and 87 % of control | dose: 100.0 mg/kg/injection, schedule: Q04DX002 (ip), vehicle: Klucel (hydroxypropylcellulose) (HPC) 103 % of control and 91 % of control | [11] 92 % of control | dose: 200.0 mg/kg/injection, schedule: Q01DX001 (ip), vehicle: Klucel (hydroxypropylcellulose) (HPC) 95 % of control | [12] 98 % of control and 91 % of control | dose: 200.0 mg/kg/injection, schedule: Q04DX002 (ip), vehicle: Klucel (hydroxypropylcellulose) (HPC) 97 % of control and 91 % of control | [13] 89 % of control | dose: 400.0 mg/kg/injection, schedule: Q01DX001 (ip), vehicle: Klucel (hydroxypropylcellulose) (HPC) 86 % of control | [14] 95 % of control and 98 % of control | dose: 400.0 mg/kg/injection, schedule: Q04DX002 (ip), vehicle: Klucel (hydroxypropylcellulose) (HPC) 97 % of control | [15] 96 % of control

CCCCCC(N)CC(=O)O (centres undefined)
inactive: dose: 100.0 mg/kg/injection, schedule: Q01DX009 (ip), vehicle: saline 105 % of control | dose: 100.0 mg/kg/injection, schedule: Q04DX003 (ip), vehicle: saline 102 % of control | dose: 200.0 mg/kg/injection, schedule: Q01DX009 (ip), vehicle: saline 96 % of control | dose: 200.0 mg/kg/injection, schedule: Q04DX003 (ip), vehicle: saline 96 % of control | dose: 400.0 mg/kg/injection, schedule: Q01DX009 (ip), vehicle: saline 96 % of control | dose: 400.0 mg/kg/injection, schedule: Q04DX003 (ip), vehicle: saline 105 % of control

COc1ccccc1NC(=O)c1ccccc1F
inactive: [10] 95 % of control | [12] 95 % of control | [14] 101 % of control

CSc1ncc(C=O)c(N)n1
inactive: [1] 100 % of control | [4] 96 % of control

CN=C(NC)c1ccc(NC(=O)Nc2ccc(C)c(NC(=O)Nc3ccc(C(=NC)NC)cc3)c2)cc1
inactive: dose: 4.5 mg/kg/injection, schedule: Q01DX Z (ip), vehicle: water 98 % of control | dose: 9.0 mg/kg/injection, schedule: Q01DX Z (ip), vehicle: water 98 % of control | dose: 18.0 mg/kg/injection, schedule: Q01DX Z (ip), vehicle: water 98 % of control

CC(C)CC(O)CC(C)C
inactive: [3] 95 % of control | dose: 118.0 mg/kg/injection, schedule: Q01DX009 (ip), vehicle: saline with Tween-80 108 % of control | [6] 93 % of control | dose: 250.0 mg/kg/injection, schedule: Q01DX009 (ip), vehicle: saline with Tween-80 102 % of control | [9] 90 % of control

COc1cc(=O)oc(/C=C/C=C/C=C/C(C)=C\C2(C)OC(C)C(C)(O)C2O)c1C (centres undefined)
inactive: dose: 12.5 mg/kg/injection, schedule: Q01DX009 (ip), vehicle: other 93 % of control | dose: 25.0 mg/kg/injection, schedule: Q01DX009 (ip), vehicle: other 100 % of control | dose: 50.0 mg/kg/injection, schedule: Q01DX009 (ip), vehicle: other 93 % of control

CC(=O)OC1CCC2(C)C(CCC3C2CCC2(C)C(c4ccc(=O)oc4)C(OC(C)=O)CC32O)C1 (centres undefined)
inactive: dose: 1.0 mg/kg/injection, schedule: Q01DX001 (sc), vehicle: steriod suspending solution 96 % of control | dose: 2.0 mg/kg/injection, schedule: Q01DX001 (sc), vehicle: steriod suspending solution 98 % of control | dose: 4.0 mg/kg/injection, schedule: Q01DX001 (sc), vehicle: steriod suspending solution 93 % of control | dose: 8.0 mg/kg/injection, schedule: Q01DX001 (sc), vehicle: steriod suspending solution 109 % of control | dose: 12.0 mg/kg/injection, schedule: Q01DX001 (sc), vehicle: steriod suspending solution 98 % of control | dose: 16.0 mg/kg/injection, schedule: Q01DX001 (sc), vehicle: steriod suspending solution 101 % of control | dose: 32.0 mg/kg/injection, schedule: Q01DX001 (sc), vehicle: steriod suspending solution 108 % of control | dose: 64.0 mg/kg/injection, schedule: Q01DX001 (sc), vehicle: steriod suspending solution 103 % of control | dose: 128.0 mg/kg/injection, schedule: Q01DX001 (sc), vehicle: steriod suspending solution 111 % of control

Cn1ccc(=O)c2cc([N+](=O)[O-])ccc21
inactive: dose: 25.0 mg/kg/injection, schedule: Q01DX009 (ip), vehicle: water 90 % of control | dose: 50.0 mg/kg/injection, schedule: Q01DX009 (ip), vehicle: water 93 % of control | dose: 100.0 mg/kg/injection, schedule: Q01DX009 (ip), vehicle: water 86 % of control | [2] 104 % of control and 106 % of control | [3] 115 % of control and 90 % of control | dose: 200.0 mg/kg/injection, schedule: Q01DX009 (ip), vehicle: water 95 % of control | [5] 109 % of control and 87 % of control | [6] 97 % of control and 102 % of control | [8] 87 % of control and 88 % of control | [9] 88 % of control
